ChEMBL document CHEMBL5584238, “Psammaplin A analogues with modified disulfide bond targeting histone deacetylases: Synthesis and biological evaluation” (Eur J Med Chem, 2024)

Experiments:
Assay type in all cases: functional, cell-based
HCT-116 = assay: Antiproliferative activity against human HCT-116 cells incubated for 48 hrs by MTT assay; conditions: HCT-116, 48 h
EBC-1 = assay: Antiproliferative activity against human EBC-1 cells incubated for 48 hrs by MTT assay; conditions: EBC-1, 48 h
NCI-H1581 = assay: Antiproliferative activity against human NCI-H1581 cells incubated for 48 hrs by MTT assay; conditions: NCI-H1581, 48 h

Row | SMILES | IC50 (HCT-116) | IC50 (EBC-1) | IC50 (NCI-H1581)
1 | CC(C)(CNC(=O)/C(Cc1ccc(O)c(Br)c1)=N/O)SSCCNC(=O)/C(Cc1ccc(O)c(Br)c1)=N/O | 3.52 µM | > 10 µM | 3.75 µM
2 | O=C(NC1CSSC1)/C(Cc1ccc(O)c(Br)c1)=N/O | 6.02 µM | > 10 µM | > 10 µM
3 | O=C(NC1CS[Se]C1)/C(Cc1ccc(O)c(Br)c1)=N/O (stereo not given) | 1.53 µM | 3.31 µM | 0.93 µM
4 | O=C(NC1C[Se][Se]C1)/C(Cc1ccc(O)c(Br)c1)=N/O | > 10 µM | > 10 µM | > 10 µM
5 | O=C(NC1CSSC1)/C(Cc1cccc(F)c1)=N/O | > 10 µM | > 10 µM | > 10 µM
6 | O=C(NCCSSCCNC(=O)/C(Cc1cccs1)=N/O)/C(Cc1cccs1)=N/O | 4.94 µM | > 10 µM | 6.16 µM
7 | O=C(NCCSSCCNC(=O)/C(Cc1ccc(O)cc1)=N/O)/C(Cc1ccc(O)cc1)=N/O | 6.57 µM | – | –
8 | O=C(NCCSSCCNC(=O)/C(Cc1ccsc1)=N/O)/C(Cc1ccsc1)=N/O | 8.97 µM | > 10 µM | > 10 µM
9 | O=C(NCC[Se][Se]CCNC(=O)/C(Cc1ccco1)=N/O)/C(Cc1ccco1)=N/O | 0.41 µM | 0.45 µM | 0.3 µM
10 | O=C(NCCSSCCNC(=O)/C(Cc1ccc(Br)s1)=N/O)/C(Cc1ccc(Br)s1)=N/O | 2.22 µM | > 10 µM | 4.17 µM
11 | O=C(NC1CC[Se]SC1)/C(Cc1ccc(O)cc1)=N/O (stereo not given) | > 10 µM | > 10 µM | 1.28 µM
12 | O=C(NC1CC[Se]SC1)/C(Cc1ccc(Br)s1)=N/O (stereo not given) | > 10 µM | > 10 µM | 1.44 µM
13 | O=C(NC1CCS[Se]C1)/C(Cc1ccc(Cl)s1)=N/O (stereo not given) | > 10 µM | > 10 µM | 2.46 µM
14 | O=C(NC1C[Se][Se]C1)/C(Cc1ccc(O)cc1)=N/O | > 10 µM | > 10 µM | > 10 µM
15 | O=C(NC1CC[Se][Se]C1)/C(Cc1ccc(O)cc1)=N/O (stereo not given) | > 10 µM | > 10 µM | > 10 µM
16 | O=C(NCCSSCCNC(=O)/C(Cc1ccco1)=N/O)/C(Cc1ccco1)=N/O | > 10 µM | > 10 µM | > 10 µM
17 | O=C(NCC[Se][Se]CCNC(=O)/C(Cc1cccs1)=N/O)/C(Cc1cccs1)=N/O | 0.19 µM | 1.13 µM | 0.16 µM

Row | SMILES | IC50 (HCT-116) | IC50 (EBC-1) | IC50 (NCI-H1581)
18 | O=C(NC1CCSSC1)/C(Cc1ccc(O)cc1)=N/O (stereo not given) | > 10 µM | > 10 µM | > 10 µM
19 | O=C(NCCSSCCNC(=O)/C(Cc1ccc[nH]1)=N/O)/C(Cc1ccc[nH]1)=N/O | > 10 µM | > 10 µM | > 10 µM
20 | Cc1ccc(C/C(=N\O)C(=O)NCCSSCCNC(=O)/C(Cc2ccc(C)o2)=N/O)o1 | 6.9 µM | > 10 µM | > 10 µM
21 | O=C(NC1CC[Se]SC1)/C(Cc1ccc(Cl)s1)=N/O (stereo not given) | > 10 µM | > 10 µM | 1.1 µM
22 | O=C(NCCSSCCNC(=O)/C(Cc1ccc(Br)o1)=N/O)/C(Cc1ccc(Br)o1)=N/O | 1.74 µM | > 10 µM | > 10 µM
23 | O=C(NCC[Se][Se]CCNC(=O)/C(Cc1ccc(Cl)s1)=N/O)/C(Cc1ccc(Cl)s1)=N/O | 0.5 µM | 1.36 µM | 0.28 µM
24 | O=C(NC1CCS[Se]C1)/C(Cc1ccc(O)cc1)=N/O (stereo not given) | > 10 µM | > 10 µM | 2.24 µM
25 | O=C(NC1CCSSC1)/C(Cc1ccc(O)c(Br)c1)=N/O (stereo not given) | > 10 µM | > 10 µM | > 10 µM
26 | O=C(NC1CS[Se]C1)/C(Cc1ccc(O)cc1)=N/O (stereo not given) | 3.3 µM | 3.47 µM | 0.84 µM
27 | O=C(NC1CSSC1)/C(Cc1ccc(O)cc1)=N/O | 9.67 µM | > 10 µM | > 10 µM
28 | O=C(NC1CC[Se][Se]C1)/C(Cc1cccc(F)c1)=N/O (stereo not given) | > 10 µM | > 10 µM | > 10 µM
29 | O=C(NCCSSCCNC(=O)/C(Cc1ccc(Cl)s1)=N/O)/C(Cc1ccc(Cl)s1)=N/O | 5.48 µM | > 10 µM | 4.02 µM
30 | N#Cc1ccc(COc2ccc(C/C(=N\O)C(=O)NC3CSSC3)cc2)cc1 | > 10 µM | > 10 µM | > 10 µM
31 | O=C(NC1CC[Se][Se]C1)/C(Cc1ccc(O)c(Br)c1)=N/O (stereo not given) | > 10 µM | > 10 µM | > 10 µM
32 | CC(C)(CNC(=O)/C(Cc1ccc(O)c(Br)c1)=N/O)SSC(C)(C)CNC(=O)/C(Cc1ccc(O)c(Br)c1)=N/O | 5.53 µM | > 10 µM | > 10 µM
33 | O=C(NC1CCSSC1)/C(Cc1cccc(F)c1)=N/O (stereo not given) | > 10 µM | > 10 µM | > 10 µM
34 | O=C(NC1CCS[Se]C1)/C(Cc1ccc(Br)s1)=N/O (stereo not given) | > 10 µM | > 10 µM | 3.6 µM
